The experiment deals with monocytes from healthy dogs. The experiment in a line: Monocyte migration inhibition in vitro. As to conditions: at relevant serum concentrations (levels achieved by oral dosing); compared to positive and negative controls; FIG. 4.

SMILES strings stand for the structures.

Here are results for 2 molecules from patent US20210138055A1, “COMPOSITIONS, METHODS AND USES FOR MODULATING THE TUMOR MICROENVIRONMENT TO ENHANCE ANTITUMOR IMMUNITY” (COLORADO STATE UNIVERSITY RESEARCH FOUNDATION, priority 2018, published 2021).

`CCCCc1nc(Cl)c(CO)n1Cc1ccc(-c2ccccc2-c2nn[nH]n2)cc1` [losartan]: the “monocyte migration inhibitory activity” value was “significant inhibitory activity”. For `CC(C)NCC(O)COc1cccc2ccccc12` (centres unmarked) [propranolol] the value was “significant inhibitory activity”.
